Results as given in patent US8748117B2, “Probe for detection and quantification of nitric oxide, and method for detecting and quantifying nitric oxide using the same” (Japan Science and Technology Agency, priority 2004, dated 2014).
“Also recorded” adds a separate entry of the source.

Assays:
[1] = tested on: CHO-K1 cells expressing NOA-1; assay: CFP/YFP emission ratio of NOA-1 in CHO-K1 cells upon NOC-7 / NO stimulation; assay type: cell-based
Method: cDNAs respectively expressing the hybrid proteins were constructed. The hybrid proteins respectively comprise cGMP-visualization probe (hereinafter described as CGY) connected with C-terminus of sGCα or sGCβ through the linker of SEC ID NO.1 (GGEQKLISEEDLLESR). The CYG was prepared according to the method in Patent documents 1 and 2. The heterodimmer of the hybrid proteins was named as “NOA-1” (fluorescent indicator for NO with a signal amplifier) (FIGS. 2A and B). At N-terminus of NOA-1, FLAG tag of SEC ID NO.2 (MDYKDDDDK) may be attached.
(§1) Two cDNAs were introduced into CHO K1 cells having little amount of endogenous sGC thereby coexpressing both sGCα-CGY and sGCβ-CGY in the cells.
In the same manner as in Example 1, both sGCα-CGY and sGCβ-CGY were coexpressed in CHO-K1 cells.
In the same manner as in Example 1, the CHO-K1 cells coexpressed with both sGCα and sGCβ were stimulated with various amount of NOC-7 to measure the changes of CFP/YFP emission ratio dependent to NO concentrations (FIG. 6).
In the same manner as in Example 1, the CHO-K1 cells expressing NOA-1 were stimulated with various amount of NOC-7 to measure the changes of CFP/YFP emission ratio by NO and 8-Br-cGMP stimulations (FIGS. 7A and 7B).
The NO-dependent FRET response of NOA-1 was confirmed by using NO solutions prepared by bubbling NO gas. […] Importantly, NOA-1 senses not only an increase in the NO concentration but also its removal by oxidation and/or volatilization. This NO-dependent reversible response of NOA-1 is caused by the reversible binding of NO to the heme group in NOA-1 and endogenous phosphodiesterases that immediately hydrolyze the generated cGMP molecules after the removal of NO.

[2] = tested on: CHO-K1 cells expressed with sGCα-CGY or sGCβ-CGY; assay: CFP/YFP emission ratio in CHO-K1 cells expressing sGCα-CGY or sGCβ-CGY alone; assay type: cell-based; settings: subsequent addition of 2 mM 8-Br-cGMP after 50 nM NOC-7
[3] = tested on: CHO-K1 cells expressed with NOA-1; assay: Selectivity of NOA-1 FRET response (CO, natriuretic peptide, cAMP generation); assay type: cell-based; settings: for CFP/YFP emission ratio of NOA-1: excess concentration, several cultured cell types including CHO-K1 cells
Description: As to the selectivity of NOA-1, the FRET response of NOA-1 for carbon monoxide (CO) was examined.
CO is a sGC activator but has a lower affinity with sGC than NO. In addition, the CO-bound sGC is known to have much lower cyclase activity than NO-bound sGC because of each different coordination to the heme iron. Physiologically generated CO thus appears not to affect the response of NOA-1.
Effect of natriuretic peptide stimulation or cAMP generation on the FRET response of NOA-1 was examined.

[4] = target: T1, nitric oxide synthase (NOS) (Bos taurus, UniProt P29473); assay: NOS inhibitor effect on NOA-1 emission ratio in endothelial cells; assay type: cell-based, bovine; settings: 1 mM L-NAME
T1 construct: endogenous in cells; host or cells: bovine pulmonary artery endothelial cells
T1 sequence (P29473 2-1205 limits assumed): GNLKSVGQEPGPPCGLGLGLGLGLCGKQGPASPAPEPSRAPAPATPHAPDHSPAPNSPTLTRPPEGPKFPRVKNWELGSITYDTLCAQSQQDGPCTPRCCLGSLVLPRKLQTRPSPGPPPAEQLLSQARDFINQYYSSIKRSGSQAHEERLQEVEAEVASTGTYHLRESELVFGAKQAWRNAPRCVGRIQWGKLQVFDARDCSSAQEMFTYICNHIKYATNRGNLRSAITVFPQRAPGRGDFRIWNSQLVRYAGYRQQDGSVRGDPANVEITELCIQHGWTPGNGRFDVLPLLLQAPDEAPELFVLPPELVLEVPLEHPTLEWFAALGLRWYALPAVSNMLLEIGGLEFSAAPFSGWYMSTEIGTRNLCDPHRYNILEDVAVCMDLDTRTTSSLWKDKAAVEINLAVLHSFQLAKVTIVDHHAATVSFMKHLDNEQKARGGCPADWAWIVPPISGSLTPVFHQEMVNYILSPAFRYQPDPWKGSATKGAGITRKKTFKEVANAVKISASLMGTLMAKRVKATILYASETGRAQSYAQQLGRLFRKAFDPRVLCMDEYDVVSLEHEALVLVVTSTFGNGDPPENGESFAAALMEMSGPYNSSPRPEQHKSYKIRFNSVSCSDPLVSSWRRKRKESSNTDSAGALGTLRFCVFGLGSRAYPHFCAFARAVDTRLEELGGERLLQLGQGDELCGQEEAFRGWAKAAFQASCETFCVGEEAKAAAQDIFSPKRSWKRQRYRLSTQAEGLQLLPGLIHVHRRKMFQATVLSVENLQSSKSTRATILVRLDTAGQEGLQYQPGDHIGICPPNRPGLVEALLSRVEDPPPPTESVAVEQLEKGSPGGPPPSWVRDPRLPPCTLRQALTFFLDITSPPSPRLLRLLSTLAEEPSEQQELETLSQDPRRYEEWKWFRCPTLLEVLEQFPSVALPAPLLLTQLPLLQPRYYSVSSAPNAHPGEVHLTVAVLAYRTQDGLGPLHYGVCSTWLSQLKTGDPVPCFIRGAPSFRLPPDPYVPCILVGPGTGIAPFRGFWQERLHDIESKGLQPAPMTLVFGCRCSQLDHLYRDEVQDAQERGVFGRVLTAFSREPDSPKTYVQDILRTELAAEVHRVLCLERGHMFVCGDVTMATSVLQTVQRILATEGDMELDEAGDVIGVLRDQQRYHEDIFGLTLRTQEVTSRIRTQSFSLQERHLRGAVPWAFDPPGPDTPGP
Method: (§2) (1) NOA-1 was expressed in endothelial cells from bovine pulmonary artery cultured in a serum-supplemented media. […] This is based on difference of basal NO concentration between CHO-K1 cell and vascular endothelial cell. (3) Endothelial cells and CHO-K1 cells were pretreated with an inhibitor for nitric oxide synthase (NOS), 1 mM L-NAME and the CFP/YFP emission ratio of NOA-1 was observed.

[5] = tested on: nitric oxide synthase (NOS); assay: NOS inhibitor effect on NOA-1 emission ratio in CHO-K1 cells; assay type: cell-based; settings: 1 mM L-NAME
Method: as §2

[6] = tested on: phosphatidyl inositol 3-kinase (PI(3)K); assay: PI(3)K inhibitor effect on basal NO (NOA-1 emission ratio) in endothelial cells; assay type: cell-based, bovine
Method: The stable generation of the basal NO concentration was examined in vascular endothelial cells cultured in a serum-containing medium.
That is, the endothelial cells expressing NOA-1 was added with 100 μM LY 294002), and the CFP/YFP emission ratio was monitored for the NO concentrations in the cells.

[7] = tested on: endothelial cells from bovine pulmonary artery; assay: NOA-1 CFP/YFP emission ratio in vascular endothelial cells; assay type: cell-based
Method: as §2
(4) The response of NOA-1 for excess NOC-7 between the endothelial and CHO-K1 cells was compared.
We stimulated the endothelial and CHO-K1 cells with 10 μM NOC-7, which generates enough concentration of NO to immediately saturate the NOA-1 response. […] As a result, in endothelial cells, the obtained change in the emission ratio upon the excess NOC-7 stimulation was actually only one-third of that in CHO-K1 cells (FIG. 13B).
(§3) (6) The basal concentration of NO in each vascular endothelial cell was measured. We first inhibited endogenous eNOS with 1 mM L-NAME to remove the basal NO and cGMP generated by the basal NO. The CFP/YFP emission ratios before and after the inhibition of endogenous eNOS, respectively, represent the basal and zero concentrations of NO in each endothelial cell (FIG. 15). To quantitate the basal concentration of NO, we subsequently added various concentrations of NO to each endothelial cell, in which eNOS activity was inhibited with L-NAME. The peak response of NOA-1 was plotted at each concentration of NO. Based on the obtained dose-response of NOA-1 for various concentrations of NO, we measured 1 nM of the basal NO concentration generated in each endothelial cell.

sGC = assay: Block of the NOC-7 response of NOA-1 by sGC inhibitor pretreatment in CHO-K1 cells; assay type: cell-based; settings: cells pretreated with NS 2028 (100 μM, FIG. 3-b)
Description: as §1

phosphodiesterases (PDE) = assay: Effect of PDE inhibitor on NOA-1 emission ratio in CHO-K1 cells; assay type: cell-based
Method: as §1
The latter recovery of the decreased emission ratio disappeared when the cells were pretreated with an inhibitor of phosphodiesterases (PDE) that hydrolyses cGMP, zaprinast (FIG. 3-c).
as §3

phosphodiesterases = assay: PDE inhibitor effect on NOA-1 emission ratio in endothelial cells; assay type: cell-based, bovine; settings: 200 μM zaprinast; endothelial cells expressing NOA-1

Question: How did the “plateau response of CFP/YFP emission ratio” value ([1]; addition of 2 mM 8-Br-cGMP after 100 nM NOC-7) turn out when Nc1nc2c(nc(Br)n2[C@@H]2O[C@@H]3COP(=O)(O)O[C@H]3[C@H]2O)c(=O)[nH]1 [8-Br-cGMP] was run?
Answer: did not further decrease

Question: And the CFP/YFP emission ratio [2]?
Answer: quick decrease

Question: With [C-]#[O+] [CO, carbon monoxide] as the compound, how does the “response of NOA-1 compared with that for 5 nM NO” value ([3]; 100 μM CO) read?
Answer: transient but much smaller response

Question: And the CFP/YFP emission ratio ([3]; CO up to 10 μM)?
Answer: no significant change

Question: How did the “CFP/YFP emission ratio of NOA-1” value [4] turn out when COC(=O)[C@@H](N)CCCNC(=N)N[N+](=O)[O-] [L-NAME] was run?
Answer: gradually increased

Question: What about the “CFP/YFP emission ratio of NOA-1” value [5] of the same compound?
Answer: no significant change

Question: What does the source list for O=c1cc(N2CCOCC2)oc2c(-c3ccccc3)cccc12 [LY 294002, 2-(4-morpholinyl)-8-phenyl-1(4H)-benzopyran-4-one]?
Answer: time to reach plateau of the emission ratio ([6]; 100 μM LY 294002): ≤ 25 min; emission ratio ([6]; 100 μM LY 294002, endothelial cells expressing NOA-1): significantly increased; effect on basal NO ([6]; endothelial cells, serum-containing medium): removed the basal NO concentration; also recorded: inhibitory effect on basal NO generation

Question: For CNCCCNN(N=O)C(C)CO (stereo not drawn) [NOC-7, 3-(2-hydroxy-1-methylethyl-2-nitrosohydrazino)-N-methyl-1-propanamine], which CFP/YFP emission ratio ([1]; 1 nM or 5 nM NOC-7) is on record?
Answer: dose-dependent transient response; also recorded: NO-dependent transient change

Question: And the CFP/YFP emission ratio ([1]; 10 nM NOC-7)?
Answer: reaches a plateau and then slowly recovered to the initial level; also recorded: quick decrease

Question: And the CFP/YFP emission ratio ([1]; 50 nM or 100 nM NOC-7)?
Answer: did not show no recovery to the initial level even after 20 minutes

Question: And the CFP/YFP emission ratio ([1]; 100 nM NOC-7, after reaching the plateau)?
Answer: did not subsequently show significant recovery for at least 10 min

Question: And the “CFP/YFP emission ratio response on repeated stimulation” value ([1]; second 5 nM NOC-7 stimulation after recovery to the initial value)?
Answer: same transient response

Question: What about the CFP/YFP emission ratio ([1]; stimulated with 5 nM NOC-7, CHO-K1 coexpressing sGCα-CGY and sGCβ-CGY) of the same compound?
Answer: immediately decreased but gradually recovered up to the initial level

Question: And the “change in the emission ratio upon excess NOC-7 in endothelial cells relative to CHO-K1 cells” value ([7]; 10 μM NOC-7)?
Answer: one-third

Question: And the emission ratios ([7]; 10 μM NOC-7, endothelial and CHO-K1 cells)?
Answer: immediately decreased

Question: O=c1onc2n1-c1cc(Br)ccc1OC2 [NS 2028] was tested. Which “transient change in the emission ratio by 5 nM NOC-7” value (sGC) did it give?
Answer: completely blocked

Question: For CC[C@H](C)[C@@H]1NC(=O)[C@H](CCCNC(=N)N)NC(=O)[C@H](CC(=O)O)NC(=O)[C@H](CCSC)NC(=O)[C@H](CCCNC(=N)N)NC(=O)CNC(=O)CNC(=O)[C@H](Cc2ccccc2)NC(=O)[C@@H](NC(=O)[C@H](CO)NC(=O)[C@H](CO)NC(=O)[C@H](CCCNC(=N)N)NC(=O)[C@H](CCCNC(=N)N)NC(=O)[C@H](CC(C)C)NC(=O)[C@@H](N)CO)CSSC[C@@H](C(=O)N[C@@H](CC(N)=O)C(=O)N[C@@H](CO)C(=O)N[C@@H](Cc2ccccc2)C(=O)N[C@@H](CCCNC(=N)N)C(=O)N[C@@H](Cc2ccc(O)cc2)C(=O)O)NC(=O)CNC(=O)[C@H](CC(C)C)NC(=O)CNC(=O)[C@H](CO)NC(=O)[C@H](CCC(N)=O)NC(=O)[C@H](C)NC(=O)CNC1=O [atrial natriuretic peptide], which “CFP/YFP emission ratio of NOA-1” value [3] is on record?
Answer: no significant change

Question: CC(C)NCC(O)c1ccc(O)c(O)c1 (stereo not drawn) [isoproterenol] was tested. Which “CFP/YFP emission ratio of NOA-1” value [3] did it give?
Answer: no significant change

Question: For CCCOc1ccccc1-c1nc2nn[nH]c2c(=O)[nH]1 [zaprinast], which “latter recovery of the decreased emission ratio after 5 nM NOC-7” value (phosphodiesterases (PDE); cells pretreated with zaprinast (200 μM, FIG. 3-c)) is on record?
Answer: disappeared

Question: And the emission ratio (phosphodiesterases (PDE); treatment with zaprinast, NOA-1 in CHO-K1)?
Answer: no significant change

Question: What about the CFP/YFP emission ratio (phosphodiesterases) of the same compound?
Answer: gradually decreased and reached the saturation of NOA-1 response

Question: Which “NO concentration in the endothelial cells” value ([7]; insulin stimulation) does the source give for “insulin: stimulation activates the PI(3)K-Akt pathway” here?
Answer: further increases the NO concentration
